In brackets after ≈: the same amount, converted by molar mass. Counter-ions that a name gives are not always drawn. Like-named read-outs stand apart in the source and are kept apart here.
How the values were obtained:
[1] = test system: Bordetella bronchiaseptica OKM-1; assay: in vitro antimicrobial activity (MIC), agar dilution, Part 2; type: cell-based
Procedure: (§1) Test microorganisms listed in Table 2 were cultured overnight in heart infusion nutrient broth (produced by Eiken Chemical Co., Ltd.). Culture broth containing about 10⁸/ml cells was diluted to a volume of 100 times. An aliquot (about 0.05 ml) of the diluted broth was inoculated onto a Mueller Hinton agar plate (produced by Eiken Chemical Co., Ltd.) to which Compound No. 1 was added in a prescribed concentration. […]
(§2) MIC of Compounds (1)-(8) against various pathogenic bacteria derived from animals was determined in the same manner as in Example 1.

Escherichia coli 139 = assay: as above; type: cell-based
Procedure: as §1, §2

Escherichia coli 881 = assay: as above; type: cell-based
Procedure: as §1, §2

Escherichia coli S6W = assay: as above; type: cell-based
Procedure: as §1, §2

[2] = test system: Pasteurella multocida DB-12-1; assay: as above; type: cell-based; details: DB121
Procedure: as §1, §2

[3] = test system: Salmonella typhimurium 103; assay: as above; type: cell-based; details: Salmonella enterica
Procedure: as §1, §2

[4] = test system: Salmonella typhimurium 569; assay: as above; type: cell-based
Procedure: as §1, §2

[5] = test system: Staphylococcus aureus Yamaguchi 6; assay: as above; type: cell-based
Procedure: as §1, §2

[6] = test system: Mycoplasma gallisepticum Strain 2004; assay: in vitro antimicrobial activity (MIC) in Frey liquid medium; type: cell-based; details: Mycoplasmoides gallisepticum, STRAIN2004
Procedure: (§3) Various test strains of Mycoplasma gallisepticum derived from chicken were cultured in a Frey liquid medium for Mycoplasma for 3 days. The culture broth containing about 10⁸/ml cells was diluted to a volume of 100 times. The diluted broth was inoculated into Frey liquid media for Mycoplasma to which the compounds of this invention were added at prescribed concentrations. The cells were incubated at 37°C for 3-5 days while daily observing the color of the media. Among the culture broths maintaining yellow color at the time when the control to which no test compound was added turned red, the concentration of the broth having the minimum concentration was taken as the MIC of the compound.

[7] = test system: Mycoplasma gallisepticum Strain 2012; assay: as above; type: cell-based; details: Mycoplasmoides gallisepticum, STRAIN2012
Procedure: as §3

[8] = test system: Mycoplasma gallisepticum Strain DP-1047; assay: as above; type: cell-based; details: Mycoplasmoides gallisepticum
Procedure: as §3

[9] = test system: Mycoplasma gallisepticum Strain T-2; assay: as above; type: cell-based; details: Mycoplasmoides gallisepticum
Procedure: as §3

[10] = test system: Mycoplasma gallisepticum Strain T-7; assay: as above; type: cell-based; details: Mycoplasmoides gallisepticum, Mycoplasma gallisepticum Strain T-7, from chicken, 37°C, 3-5 days
Procedure: as §3

Mycoplasma gallisepticum = assay: Effect of oral administration on chicken inoculated with Mycoplasma gallisepticum; type: in vivo; details: for Chickens developing disease in air sac (naked eye observation) / No. of dead chickens: 5 tested chickens
Procedure: Mycoplasma gallisepticum cells collected from chickens having respiratory Mycoplasma infection were cultured for 3 days in a Frey liquid media for Mycoplasma. 0.2 ml of this culture broth was injected into the trachea of chickens of an average body weight of 80 g using a 1 ml disposable injection needle. Beginning from the next day following the inoculation, feeds to which Compound (1) had been added in the amount of 100 ppm, 75 ppm, or 50 ppm were freely given to the chickens for 5 days. Following the administration of Compound (1) the chickens were given feed containing no drug for a further 5 days. The surviving chickens were sacrificed and dissected. After examination of the degree of disease in the air sac, Mycoplasma gallisepticum in the infraorbital sinus, trachea, lung, and air sac were determined. […] TABLE 6 […]

[11] = Acute toxicity test, intravenous injection; type: in vivo
Procedure: Representative test compounds, Compounds (2) and (3), were intravenously injected to mice. No fatality occurred at a dose of 200 mg/kg (10 mice/group), for Compound (2), and a dose of 200 mg/kg (6 mice/group), for Compound (3). From the results, the LD₅₀ values of the compounds are considered to be greater than 200 mg/kg.

[12] = Bordetella, OKM1, Bordetella bronchiaseptica OKM-1, Pig, read-out: MIC
[13] = Escherichia coli 139, Cow, read-out: MIC
[14] = Escherichia coli, 881, Escherichia coli 881, Pig, read-out: MIC
[15] = Escherichia coli, S6W, Escherichia coli S6W, Chicken, read-out: MIC
[16] = Pasteurella multocida DB-12-1, Pig, read-out: MIC
[17] = Salmonella typhimurium 103, Chicken, read-out: MIC
[18] = Salmonella enterica, TYPHIMURIUM, Salmonella typhimurium 569, Pig, read-out: MIC
[19] = Staphylococcus aureus Yamaguchi 6, Chicken, read-out: MIC
[20] = Mycoplasma gallisepticum Strain 2004, from chicken, Frey liquid medium, 37°C, 3-5 days, read-out: MIC
[21] = Mycoplasma gallisepticum Strain 2012, from chicken, Frey liquid medium, 37°C, 3-5 days, read-out: MIC
[22] = Mycoplasma gallisepticum Strain DP-1047, from chicken, Frey liquid medium, 37°C, 3-5 days, read-out: MIC
[23] = Mycoplasma gallisepticum Strain T-2, from chicken, Frey liquid medium, 37°C, 3-5 days, read-out: MIC

MIC [1, 12]	MIC (Escherichia coli 139; [13])	MIC (Escherichia coli 881; [14])	MIC (Escherichia coli S6W; [15])	MIC [2, 16]	MIC [3, 17]	MIC [4, 18]	MIC [5, 19]	MIC [6, 20]	MIC [7, 21]	MIC [8, 22]	MIC [9, 23]	MIC [10]	Compound	also measured
0.78 µg/mL (≈ 1.93 µM)	0.78 µg/mL (≈ 1.93 µM)	0.78 µg/mL (≈ 1.93 µM)	0.78 µg/mL (≈ 1.93 µM)	0.1 µg/mL (≈ 0.248 µM)	1.56 µg/mL (≈ 3.87 µM)	0.78 µg/mL (≈ 1.93 µM)	0.78 µg/mL (≈ 1.93 µM)	0.025 µg/mL (≈ 0.062 µM)	0.025 µg/mL (≈ 0.062 µM)	0.1 µg/mL (≈ 0.248 µM)	0.1 µg/mL (≈ 0.248 µM)	0.1 µg/mL (≈ 0.248 µM)	CCCCN1CCN(c2c(F)cc3c(=O)c(C(=O)O)cn4c3c2OCC4C)CC1 (racemic) [Compound (5), 3(RS)-9-fluoro-2,3-dihydro-3-methyl-10-(4-n-butyl-1-piperazinyl)-7-oxo-7H-pyrido[1,2,3-de] [1,4]benzoxazine-6-carboxylic acid]	
0.2 µg/mL (≈ 0.533 µM)	0.1 µg/mL (≈ 0.266 µM)	0.1 µg/mL (≈ 0.266 µM)	0.1 µg/mL (≈ 0.266 µM)		0.1 µg/mL (≈ 0.266 µM)	0.1 µg/mL (≈ 0.266 µM)	0.2 µg/mL (≈ 0.533 µM)						CCN1CCN(c2c(F)cc3c(=O)c(C(=O)O)cn4c3c2OC[C@@H]4C)CC1 [(6), 3S-9-fluoro-2,3-dihydro-3-methyl-10-(4-ethyl-1-piperazinyl)-7-oxo-7H-pyrido[1,2,3-de] [1,4]benzoxazine-6-carboxylic acid]	
0.39 µg/mL (≈ 1 µM)	0.2 µg/mL (≈ 0.514 µM)	0.2 µg/mL (≈ 0.514 µM)	0.2 µg/mL (≈ 0.514 µM)		0.2 µg/mL (≈ 0.514 µM)	0.2 µg/mL (≈ 0.514 µM)	0.2 µg/mL (≈ 0.514 µM)						CCCN1CCN(c2c(F)cc3c(=O)c(C(=O)O)cn4c3c2OC[C@@H]4C)CC1 [Compound (7), 3S-9-fluoro-2,3-dihydro-3-methyl-10-(4-n-propyl-1-piperazinyl)-7-oxo-7H-pyrido[1,2,3-de] [1,4]benzoxazine-6-carboxylic acid]	

Continued, compound first:

Compound	MIC [1, 12]	MIC (Escherichia coli 139; [13])	MIC (Escherichia coli 881; [14])	MIC (Escherichia coli S6W; [15])	MIC [2, 16]	MIC [3, 17]	MIC [4, 18]	MIC [5, 19]	MIC [6, 20]	MIC [7, 21]	MIC [8, 22]	MIC [9, 23]	MIC [10]	also measured
CC(C)N1CCN(c2c(F)cc3c(=O)c(C(=O)O)cn4c3c2OCC4C)CC1 (racemic) [(4), 3(RS)-9-fluoro-2,3-dihydro-3-methyl-10-(4-iso-propyl-1-piperazinyl)-7-oxo-7H-pyrido[1,2,3-de] [1,4]benzoxazine-6-carboxylic acid]	0.78 µg/mL (≈ 2 µM)	0.78 µg/mL (≈ 2 µM)	0.39 µg/mL (≈ 1 µM)	0.78 µg/mL (≈ 2 µM)	0.2 µg/mL (≈ 0.514 µM)	0.78 µg/mL (≈ 2 µM)	0.78 µg/mL (≈ 2 µM)	0.78 µg/mL (≈ 2 µM)	0.05 µg/mL (≈ 0.128 µM)	0.05 µg/mL (≈ 0.128 µM)	0.2 µg/mL (≈ 0.514 µM)	0.39 µg/mL (≈ 1 µM)	0.39 µg/mL (≈ 1 µM)	
CCN1CCN(c2c(F)cc3c(=O)c(C(=O)O)cn4c3c2OCC4C)CC1 (racemic) [Compound (2), 3(RS)-9-fluoro-2,3-dihydro-3-methyl-10-(4-ethyl-1-piperazinyl)-7-oxo-7H-pyrido[1,2,3-de] [1,4]benzoxazine-6-carboxylic acid]	0.2 µg/mL (≈ 0.533 µM)	0.2 µg/mL (≈ 0.533 µM)	0.1 µg/mL (≈ 0.266 µM)	0.1 µg/mL (≈ 0.266 µM)	0.05 µg/mL (≈ 0.133 µM)	0.2 µg/mL (≈ 0.533 µM)	0.1 µg/mL (≈ 0.266 µM)	0.39 µg/mL (≈ 1.04 µM)	0.025 µg/mL (≈ 0.0666 µM)	0.025 µg/mL (≈ 0.0666 µM)	0.1 µg/mL (≈ 0.266 µM)	0.1 µg/mL (≈ 0.266 µM)	0.1 µg/mL (≈ 0.266 µM)	Mycoplasma gallisepticum collected in Air sac (Mycoplasma gallisepticum; 50 ppm in feed for 5 days): 2.08 Logarithmic number of collected cells per 1 g of tissue; Mycoplasma gallisepticum collected in Infraorbital sinus (Mycoplasma gallisepticum; 50 ppm in feed for 5 days): 0/5; Mycoplasma gallisepticum collected in Lung (Mycoplasma gallisepticum; 50 ppm in feed for 5 days): 2.43 Logarithmic number of collected cells per 1 g of tissue; Mycoplasma gallisepticum collected in Trachea (Mycoplasma gallisepticum; 50 ppm in feed for 5 days): 2.96 Logarithmic number of collected cells per 1 g of tissue; Chickens developing disease in air sac (naked eye observation) (Mycoplasma gallisepticum; 50 ppm in feed for 5 days): 0; No. of dead chickens (Mycoplasma gallisepticum; 50 ppm in feed for 5 days): 0; Mycoplasma gallisepticum collected in Air sac (Mycoplasma gallisepticum; 75 ppm in feed for 5 days): 0 Logarithmic number of collected cells per 1 g of tissue; Mycoplasma gallisepticum collected in Infraorbital sinus (Mycoplasma gallisepticum; 75 ppm in feed for 5 days): 0/5; Mycoplasma gallisepticum collected in Lung (Mycoplasma gallisepticum; 75 ppm in feed for 5 days): 0 Logarithmic number of collected cells per 1 g of tissue; Mycoplasma gallisepticum collected in Trachea (Mycoplasma gallisepticum; 75 ppm in feed for 5 days): 0 Logarithmic number of collected cells per 1 g of tissue; Chickens developing disease in air sac (naked eye observation) (Mycoplasma gallisepticum; 75 ppm in feed for 5 days): 0; No. of dead chickens (Mycoplasma gallisepticum; 75 ppm in feed for 5 days): 0; Mycoplasma gallisepticum collected in Air sac (Mycoplasma gallisepticum; 100 ppm in feed for 5 days): 0 Logarithmic number of collected cells per 1 g of tissue; Mycoplasma gallisepticum collected in Infraorbital sinus (Mycoplasma gallisepticum; 100 ppm in feed for 5 days): 0/5; Mycoplasma gallisepticum collected in Lung (Mycoplasma gallisepticum; 100 ppm in feed for 5 days): 0 Logarithmic number of collected cells per 1 g of tissue; Mycoplasma gallisepticum collected in Trachea (Mycoplasma gallisepticum; 100 ppm in feed for 5 days): 0 Logarithmic number of collected cells per 1 g of tissue; Chickens developing disease in air sac (naked eye observation) (Mycoplasma gallisepticum; 100 ppm in feed for 5 days): 0; No. of dead chickens (Mycoplasma gallisepticum; 100 ppm in feed for 5 days): 0; fatality ([11]; mice, intravenously injected, dose of 200 mg/kg): No fatality; LD50 ([11]; mouse, in vivo, iv): > 200 mg/kg
CCN1CCN(c2c(F)cc3c(=O)c(C(=O)O)cn4c3c2OCC4C)CC1 (racemic) [Compound (8), 3(RS)-9-fluoro-2,3-dihydro-3-methyl-10-(4-ethyl-1-piperazinyl)-7-oxo-7H-pyrido[1,2,3-de] [1,4]benzoxazine-6-carboxylic acid hydrochloride hemihydrate]														MIC ([1]; Bordetella bronchiaseptica OKM-1, Pig, listed as No. 8, hydrochloride hemihydrate): 0.39 µg/mL; MIC (Escherichia coli 881; Escherichia coli 881, Pig, listed as No. 8, hydrochloride hemihydrate): 0.2 µg/mL; MIC (Escherichia coli S6W; Escherichia coli S6W, Chicken, listed as No. 8, hydrochloride hemihydrate): 0.2 µg/mL; MIC ([4]; Salmonella typhimurium 569, Pig, listed as No. 8, hydrochloride hemihydrate): 0.2 µg/mL
CCn1cc(C(=O)O)c(=O)c2cc3c(cc21)OCO3 [Oxolinic acid, reference compound]														MIC ([1]; Bordetella, OKM1): 1.56 µg/mL (≈ 5.97 µM); MIC (Escherichia coli 139; Escherichia coli, 139): 0.78 µg/mL (≈ 2.99 µM); MIC (Escherichia coli 881; Escherichia coli, 881): 0.39 µg/mL (≈ 1.49 µM); MIC (Escherichia coli S6W; Escherichia coli, S6W): 0.39 µg/mL (≈ 1.49 µM); MIC ([2]; Pasteurella multocida): 0.2 µg/mL (≈ 0.766 µM); MIC ([3]; TYPHIMURIUM): 0.78 µg/mL (≈ 2.99 µM); MIC ([4]; Salmonella enterica, TYPHIMURIUM): 0.39 µg/mL (≈ 1.49 µM); MIC ([5]; Staphylococcus aureus): 3.13 µg/mL (≈ 12 µM); MIC [6]: > 100 µg/mL; MIC [7]: > 100 µg/mL; MIC [8]: > 100 µg/mL; MIC [9]: > 100 µg/mL

Reference: EP0354453A2, “Antimicrobial agent for animals” (priority 1988, dated 1990)
